Reference: publication PMC11509080, “Discovery of Kuraridin as a Potential Natural Anti-Melanogenic Agent: Focusing on Specific Target Genes and Multidirectional Signaling Pathways” (International Journal of Molecular Sciences, 2024)

Experiments:
tyrosinase [1] = system: tyrosinase; set-up: method as in Deri et al. (2016) [15]; settings: ref Deri et al. (2016) [15], cited from earlier work
B16F10 melanoma cells [2] = assay: Cell viability, CCK-8 assay; type: cell-based, Murine; settings: 0.1–5 μM, 72 h
Description: Murine B16F10 melanoma cells (Korean Cell Line Bank, Seoul, Republic of Korea) were cultured in DMEM containing 10% FBS and 1% penicillin-streptomycin at 37 °C in the humidified atmosphere of a 5% CO2 incubator. The cells were cultured until 100% confluent for all experiments.
Cell viability was assessed using the CCK-8 kit. Cells were incubated in 96-well plates at a density of approximately 3 × 10^3 cells/well. After 24 h incubation, a kuraridin concentration (0.1–10 µM) of samples or medium was added to B16F10 cells at 72 h of incubation. Absorbance was monitored at 450 nm using a microplate reader (Synergy H(1), Biotek, VT, USA).

B16F10 cells = assay: Cellular tyrosinase activity (L-DOPA oxidation) in α-MSH-induced cells; type: cell-based, Murine; settings: for Intracellular tyrosinase activity: α-MSH-induced B16F10 cells
Description: Tyrosinase activity was estimated by measuring the rate of L-DOPA oxidation. […] The cells were washed with cold PBS, and cell lysis buffer was added for lysis at 4 °C for 1 h on ice and centrifuged at 13,000 rpm for 20 min at […] to obtain supernatants. Protein concentration was quantified at 50 µg using a BCA protein assay kit. […] Absorbance was measured at 490 nm using a microplate reader.

tyrosinase [3] = target: T1, tyrosinase (Agaricus bisporus, UniProt C7FF04); assay: Enzyme kinetic analysis of tyrosinase with L-tyrosine (Lineweaver-Burk, Dixon plots); type: biochemical; settings: substrate L-tyrosine
T1 sequence (G1K3P4 entry or part of it): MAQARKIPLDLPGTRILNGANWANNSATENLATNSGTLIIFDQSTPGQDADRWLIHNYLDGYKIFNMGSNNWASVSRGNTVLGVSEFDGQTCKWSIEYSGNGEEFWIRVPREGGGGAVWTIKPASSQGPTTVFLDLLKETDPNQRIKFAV
T1 sequence (C7FF04 2-392): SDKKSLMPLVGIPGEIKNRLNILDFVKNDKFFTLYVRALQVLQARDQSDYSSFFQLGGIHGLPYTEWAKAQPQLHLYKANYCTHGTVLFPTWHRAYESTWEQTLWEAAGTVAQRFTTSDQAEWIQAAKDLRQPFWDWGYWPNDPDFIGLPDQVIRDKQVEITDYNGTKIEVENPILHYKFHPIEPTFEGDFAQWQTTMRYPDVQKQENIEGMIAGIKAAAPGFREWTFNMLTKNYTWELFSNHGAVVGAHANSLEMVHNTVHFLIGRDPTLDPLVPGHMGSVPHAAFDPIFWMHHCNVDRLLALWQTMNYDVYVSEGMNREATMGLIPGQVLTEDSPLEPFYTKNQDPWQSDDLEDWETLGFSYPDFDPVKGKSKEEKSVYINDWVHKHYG
Description: (§1) Enzyme kinetics were analyzed using Lineweaver–Burk and Dixon reciprocal plots of the reaction rate and substrate concentration to evaluate the effect of the sample on the affinity of the substrate and enzyme. The tyrosinase concentration was kept constant at 200 U/mL, whereas the substrate (L-tyrosine/L-DOPA) concentration varied between 0.5 and 2.0 mM. The reaction was similar to the anti-tyrosinase assay described above; 100 µL of sample solution was added, followed by 100 µL of tyrosinase (200 units/mL) after incubation at 25 °C. The substrate was then added to the wells and mixed thoroughly, and kinetic measurements of the solution were performed at a wavelength of 475 nm.

tyrosinase [4] = target: T1, tyrosinase; assay: Enzyme kinetic analysis of tyrosinase with L-DOPA (Lineweaver-Burk, Dixon plots); type: biochemical; settings: substrate L-DOPA
Description: as §1

B16F10 melanoma cells [5] = assay: Cellular melanin content (extracellular and intracellular) in α-MSH-induced cells; type: cell-based, Murine
Description: B16F10 melanoma cells (7.4 × 10⁴ cells/well) were seeded in a 6-well plate. […] The extracellular melanin content was measured by direct estimation of the absorbance of the cell-free culture medium at 405 nm. For the measurement of intracellular melanin content, cell pellets were dissolved in 1 N NaOH at 95 °C for 1 h. The absorbance of the resulting solution was measured at 405 nm using a microplate reader [Synergy H(1)].

[6] = α-MSH-induced B16F10 cells, 0.1–5 μM, dose-dependent
[7] = B16F10 cells, α-MSH stimulation 0.1 μM, 72 h, control = 100%

Compound: O=c1cc(CO)occ1O [Kojic acid]
- Inhibition Type L-DOPA (tyrosinase [1]; substrate L-DOPA): Mixed ^2
- Inhibition Type L-Tyrosine (tyrosinase [1]; substrate L-tyrosine): Mixed ^2

Compound: C=C(C)[C@H](CC=C(C)C)Cc1c(O)cc(OC)c(C(=O)/C=C/c2ccc(O)cc2O)c1O [Kuraridin, kuraridin]
- Cytotoxicity (cell viability) (B16F10 melanoma cells [2]): without cytotoxicity
- Intracellular tyrosinase activity (B16F10 cells; all tested concentrations (0.1–5 μM), vs α-MSH only, p < 0.001): significantly suppressed tyrosinase activity
- Intracellular tyrosinase activity (B16F10 cells; lowest concentration 0.1 μM): reached control levels
- Inhibition Type L-Tyrosine (tyrosinase [3]): Non-competitive
- Inhibition Type L-DOPA (tyrosinase [4]): Competitive
- Inhibition Type L-DOPA (tyrosinase [4]; listed as kuraridin): competitive inhibition
- Extracellular melanin production (B16F10 melanoma cells [5]; [6]): significantly attenuated
- Intracellular melanin production (B16F10 melanoma cells [5]; [6]): significantly attenuated
- Intracellular melanin content lower than the untreated control (B16F10 melanoma cells [5]; α-MSH-treated B16F10 cells, 1 µM): 15%

Compound: C=C(C)[C@H](CCC(C)(C)O)Cc1c(O)cc(OC)c2c1O[C@H](c1ccc(O)cc1O)CC2=O [Kurarinol, kurarinol]
- Inhibition Type L-Tyrosine (tyrosinase [3]): Non-competitive

Compound: C=C(C)[C@H](CC=C(C)C)Cc1c(O)cc(O)c2c1O[C@H](c1ccccc1O)CC2=O [Kushenol A, kushenol A]
- Inhibition Type L-Tyrosine (tyrosinase [3]): Non-competitive

Compound: alpha-melanocyte-stimulating hormone [α-MSH, reference compound]
- Increase of intracellular tyrosinase activity compared with control group (B16F10 cells; B16F10 cells, α-MSH 100 nM, 72 h): 1.8 fold
- Extracellular melanin content (B16F10 melanoma cells [5]; [7]): approximately 132%
- Intracellular melanin content (B16F10 melanoma cells [5]; [7]): ~127%
